In assay [1] the target is T1, human P2Y1 purinergic receptor (Homo sapiens, UniProt P47900).
T1 construct: expressed in transfected cells; host or cells: CHO cells, transiently co-transfected with pCMV R-CEPIAer
Nature of the assay: R-CEPIAer ER calcium assay, CHO cells co-transfected with P2Y1 receptor. Format: cell-based. Particulars: 5 μM UCL 1684, 1 μM ATP, read-out: Fractional inhibition of second ATP response. As to the method: [Worded in the source for another target; used here, by the source, with some conditions changed.] The binding of antagonists to Gq-coupled receptors was determined by measuring IP3-mediated calcium depletion from the endoplasmic reticulum (ER). This was accomplished using CHO-K1 cells stably transfected with human M3 muscarinic acetylcholine receptor (CEM3000000, cDNA Resource Center, Bloomsburg University) and R-CEPIAer, a low affinity ER-targeted calcium indicator fluorescent protein ([Suzuki et al., 2014]). R-CEPIAer reporting of ER calcium concentration was assessed using 564 nm excitation light (>590 long-pass emission) at 20 second intervals on a Nikon swept-field confocal microscope using slit-scan mode, 2x2 Binning, and 100 millisecond frames. F/Fmax was fluorescence intensity normalized to maximal fluorescence intensity during the experiment. The response of cells to Gq-coupled receptor agonist were measured as the change in F/Fmax (ΔF/Fmax) from preagonist value to fluorescence minimum during agonist application (that occurs by IP3-mediated ER calcium depletion). […] Perfusion of each agonist application was for 2 min, while the antagonist overlapped and preceded the second agonist application by 3 min. […] IC50 was calculated by assaying fractional inhibition using a dose-response of antagonist concentrations (i.e. Figure 1D ). […]

The target in assay [2] is T2, M3 mACHR (Homo sapiens, UniProt P20309).
T2 construct: expressed in transfected cells; host or cells: membranes of M3 mACHR-expressing CHO cells
T2 sequence (P20309 whole entry): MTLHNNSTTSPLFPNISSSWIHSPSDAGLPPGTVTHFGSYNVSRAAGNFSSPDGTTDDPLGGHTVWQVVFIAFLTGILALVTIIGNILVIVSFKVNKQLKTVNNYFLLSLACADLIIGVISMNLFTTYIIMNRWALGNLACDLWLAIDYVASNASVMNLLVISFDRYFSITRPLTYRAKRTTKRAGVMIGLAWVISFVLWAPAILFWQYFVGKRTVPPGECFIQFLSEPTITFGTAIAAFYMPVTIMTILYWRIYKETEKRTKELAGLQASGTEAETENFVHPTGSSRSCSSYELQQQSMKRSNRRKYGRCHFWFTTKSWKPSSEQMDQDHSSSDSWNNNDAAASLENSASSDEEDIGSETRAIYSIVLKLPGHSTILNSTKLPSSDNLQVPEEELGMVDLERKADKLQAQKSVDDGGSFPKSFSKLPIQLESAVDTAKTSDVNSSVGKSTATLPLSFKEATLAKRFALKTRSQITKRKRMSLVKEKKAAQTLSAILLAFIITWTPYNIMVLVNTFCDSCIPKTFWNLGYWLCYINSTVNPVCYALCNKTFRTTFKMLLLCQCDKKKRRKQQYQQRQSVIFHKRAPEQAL
The experiment in a line: [3H]-NMS competition binding, M3 mACHR-expressing CHO cell membranes. As to conditions: 0.9 nM [3H]-NMS. As to the method: Competition binding assays were done with [^3H]-N-methyl-scopolamine ([3H]-NMS, PerkinElmer) essentially as described ([Steinfeld et al., 2010]) with minor modifications. Membrane homogenates were prepared in HEPES assay buffer (20 mM HEPES, 100 mM NaCl, and 10 mM MgCl, pH 7.4) by trituration on ice through a 26-gauge needle followed by centrifugation at 39,000g in Sorval RC-6+ centrifuge. Membranes were resuspended in assay buffer and protein concentration determined by the method of Bradford using bovine serum albumin as a standard ([Bradford, 1976]). Membranes (25 µg) were incubated along with 0.9 nM ^3H- NMS without or with UCL1684 concentrations (10^-11M to 10^-4M in triplicate) for 120 min at 30°C in 96 multiwell GF/C filter plates (MilliporeSigma) coated with 0.3% polyethyleneimine (Sigma). The assay was terminated by rapid filtration using a MilliporeSigma vacuum manifold followed by three washes with ice-cold wash buffer (20mM HEPES, pH 7.4). Filters were removed and placed in 7 ml scintillation vials containing 5 ml scintillation fluid (National Diagnostics) and radioactivity counted using a Beckman LS-6500 ß-counter. Nonspecific binding was defined by 100 µM atropine. […]

Consider one molecule from paper PMC7525093, “Bis-Quinolinium Cyclophane Blockers of SK Potassium Channels Are Antagonists of M3 Muscarinic Acetylcholine Receptors” (Frontiers in Pharmacology, 2020).

SMILES strings stand for the structures. Like-named read-outs stand apart in the source and are kept apart here.

In general, inhibition refers to how much of the control response was suppressed.

T1 sequence (P47900 whole entry): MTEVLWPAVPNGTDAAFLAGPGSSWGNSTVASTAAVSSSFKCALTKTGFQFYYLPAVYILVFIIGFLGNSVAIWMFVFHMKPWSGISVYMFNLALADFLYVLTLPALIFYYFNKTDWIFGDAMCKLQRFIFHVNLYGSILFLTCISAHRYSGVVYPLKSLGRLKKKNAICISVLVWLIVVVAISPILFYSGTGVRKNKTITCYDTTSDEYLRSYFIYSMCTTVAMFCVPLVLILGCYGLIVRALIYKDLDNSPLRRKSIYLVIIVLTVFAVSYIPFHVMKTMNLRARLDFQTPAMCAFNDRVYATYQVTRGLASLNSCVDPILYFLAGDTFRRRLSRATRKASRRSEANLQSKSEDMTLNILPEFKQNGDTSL

On to `c1cc2cc(c1)C[n+]1ccc(c3ccccc31)NCc1ccc(cc1)CNc1cc[n+](c3ccccc13)C2` [UCL 1684, 6,12,19,20,25,26-Hexahydro-5,27:13,18:21,24-trietheno-11,7-metheno-7H-dibenzo [b,n] [1,5,12,16]tetraazacyclotricosine-5,13-diium dibromide], for which the inhibition at 5 µM in assay [1] stood at 6.7 ± 6%. The Ki was 0.909 µM in assay [2] (n=3 separate experiments, read-out: Average Ki, competition binding) and 1.12 µM in assay [2] (single experiment shown, read-out: pKi, representative binding experiment (converted)).
